We go through two molecules from patent US11419856B2, “Pharmaceutical combinations for use in the treatment of neoplastic diseases” (Basilea Pharmaceutica International AG, priority 2017, dated 2022).

Read-outs that look alike come from different tables or passages of the source.

Assay [1] relates to microtubules (soluble vs polymerized tubulin), MDA-MB-231 cells. Kind of assay: Cellular microtubule destabilization assay and immunoblotting for tubulin. It is filed as cell-based, human. Conditions: 2 hours. Here is the method:
The following human cell line was used: MDA-MB-231 (ATCC: HTB-26). In addition the following enhanced green fluorescent protein (EGFP)-transfected human cell lines were used: NCI-H460 (ATCC: HTB-177) (H460GFP) and Jurkat (ATCC: TIB-152) (JurkatGFP). NCI-H460 and Jurkat cell lines were cultured in RPMI-1640 tissue culture medium containing 10% (v/v) fetal calf serum, 2 mM glutamine, non-essential amino acids and 50 μg/ml penicillin/streptomycin (Complete medium) (Sigma, Buchs, Switzerland). The MDA-MB-231 cell line was cultured in Dulbecco's Modified Eagle Medium (DMEM) (high glucose) tissue culture medium containing 10% (v/v) fetal calf serum, 1 mM sodium pyruvate and 50 μg/ml penicillin/streptomycin (i.e. Complete Medium) (Sigma, Buchs, Switzerland).
General growth conditions were 37° C. and 7.5% CO2. For the microtubule destabilization assay cell lines were cultured in 5% CO2.
Trypsinized MDA-MB-231 cells (500′000 cells per treatment) were treated in 1 mL medium containing BAL27862 and/or eribulin (Halaven®, Ch.-B. 60363CRN1, Eisai) or appropriate vehicle control (dimethylsulfoxide (DMSO)) for 2 hours in a water bath at 37° C. […]

The test system of another assay is MDA-MB-231 cells. The experiment in a line: Soft agar clonogenic (colony outgrowth) assay, anti-proliferative IC50. Conditions: Homo sapiens. Type of assay: cell-based. Here is the method:
Cells were plated in soft agar in 24-well plates according to the assay introduced by Hamburger & Salmon (Primary bioassay of human tumor stem cells, Science, 1977, 197:461-463). Each test well contained three layers of equal volume: 2 layers of semi-solid medium (bottom and top layer), and one layer of medium supernatant, with or without test compound (drug overlay on top of the semi-solid medium layer).
The bottom agar layer consisted of 0.2 mL/well IMDM supplemented with 20% (v/v) fetal calf serum, penicillin/streptomycin 50 μg/mL and 0.75% (w/v) bacto agar (BD Biosciences, #214050). For the top agar layer, 10′000-20′000 cells were added to 0.2 mL of the same IMDM medium supplemented with 0.35% (w/v) bacto agar and plated onto the bottom layer. For the drug overlay, the test compounds were applied by continuous exposure in 0.2 mL IMDM medium on top of the two agar layers. The drug overlay was added directly after seeding the cells as 3-fold concentrated solution and changed carefully every 3-4 days. Every 24-well plate contained untreated controls and samples in duplicates. Cultures were incubated at 37° C. and 5% CO2 for 6-14 days. 24 hours prior to evaluation, vital colonies were stained with a sterile aqueous solution of 2-(4-iodophenyl)-3-(4-nitrophenyl)-5-phenyltetrazolium chloride (Sigma, #I-8377, 1 mg/mL, 100 μL/well) (Alley M C et al., Life Sci. 1982, 31:3071-3078) and were counted with an automatic image analysis system (GelCount, Oxford Optronix). IC50-values were determined by plotting compound concentrations versus relative colony counts. Relative drug effects were expressed by the maximum effect of the mean number of colonies in the treated wells in comparison to the control wells.

A further assay deals with HCC1395. Kind of assay: Soft agar assay, IC50 of single agents in HCC1395. Type of assay: cell-based. Conditions: Homo sapiens. Here is the method: (§1) Example 5: Determination of Drug Interaction in Cell Lines by Soft Agar Assay
(§2) The combination of BAL101553 with eribulin was tested in various cell lines by soft agar assay. Table 1 and Table 2 present the results according to coefficient of drug interaction based on colony number (Table 1) and total area of colonies (Table 2). In both cases the coefficient of drug interaction is calculated according to the formula described in Zhao et al., J Intercult Ethnopharmacol. 2014, 3(2): 68-72): (combination/untreated)/[(compound1/untreated)×(compound2/untreated)]

A further assay concerns HCT116. Kind of assay: Soft agar assay, IC50 of single agents in HCT116. It is filed as cell-based. Conditions: Homo sapiens, HCT-116. How it is done:
as §1, §2

The subject of a further assay is MiaPaCa2. Kind of assay: Soft agar assay, IC50 of single agents in MiaPaCa2. Conditions: Homo sapiens, MIA PaCa-2. Type of assay: cell-based. Here is the method:
as §1, §2

Where [2] appears, read: read-out: IC50 values in soft agar assay.
Where [3] appears, read: soft agar clonogenic assay, data not shown, read-out: anti-proliferative IC50.

Consider `N#CCCNc1nonc1-c1nc2ccccc2n1CC(=O)c1ccc(N)cc1` [BAL27862, 3-(4-{1-[2-(4-Amino-phenyl)-2-oxo-ethyl]-1H-benzoimidazol-2-yl}-furazan-3-ylamino)-propionitrile], for which the “microtubule destabilizing activity (soluble vs particulate tubulin, Western blot)” value in assay [1] (single agent 20 and 30 nM (FIG. 5A)) is reported as “concentration-dependent but incomplete destabilizing effect”. Moreover, the IC50 with MDA-MB-231 cells (setting [2]) came out at 12 nM; in the assay with MDA-MB-231 cells (setting [3]), 12 nM; in the assay with HCC1395, 10 nM; in the assay with HCT116, 18 nM; in the assay on MiaPaCa2 it was 9 nM.
Take `C=C1C[C@@H]2CC[C@@]34C[C@H]5O[C@H]6[C@@H](O3)[C@H]3O[C@H](CC[C@@H]3O[C@H]6[C@H]5O4)CC(=O)C[C@@H]3[C@@H](OC)[C@@H](C[C@H](O)CN)O[C@H]3C[C@H]3O[C@@H](CC[C@@H]1O2)C[C@@H](C)C3=C.CS(=O)(=O)O` [Eribulin, (2R, 3R, 3aS, 7R, 8aS, 9S, 10aR, 11S, 12R, 13aR, 13bS, 15S, 18S, 21S, 24S, 26R, 28R, 29aS)-2-[(2S)-3-Amino-2-hydroxypropyl]-3-methoxy-26-methyl-20,27-dimethylidenehexacosahydro-11,15:18,21:24,28-triepoxy-7,9-ethano-12,15-methano-9H,15H-furo[3,2-i]furo[2′,3′:5,6]pyrano[4,3-b][1,4]dioxacyclopentacosin-5(4H)-one methanesulfonate (salt)]: in assay [1] (single agent 0.2 nM and 2 nM), the “microtubule destabilizing activity (soluble vs particulate tubulin, Western blot)” value was “only a small increase in soluble tubulin”. The half-inhibitory concentration (IC50) in the assay with MDA-MB-231 cells (setting [2]) was 0.111 nM; with MDA-MB-231 cells (setting [3]) it was 0.1 nM; in the assay with HCC1395, 0.5 nM; with HCT116 it was 1 nM; in the assay with MiaPaCa2, 0.5 nM.
